Data from patent publication US20250250613A1, “DISCOVERY OF BACTERIAL AIEGEN THAT LIGHTS UP SPECIFIC G-QUADRUPLEXES” (Southern Marine Science and Engineering Guangdong …, priority 2024, published 2025).

Experiments:
[1] = system: c-kit2 (SEQ ID NO: 3) DNA G4; assay: Photoluminescence test of HMPQ with c-kit2 G4 (turn-on, Stern-Volmer plot, LOD); assay type: binding
Description: Single DNA nucleotides were purchased from Integrated DNA Technologies. The DNA sample at 100 μM (single strands) was then re-annealed by heating to 95° C. for 15 min, followed by slow cooling to room temperature overnight in an annealing buffer of 70 mM KCl and 20 mM potassium phosphate (pH 7.0). The final NMR samples contained 0.1 mM DNA or RNA in 20 mM potassium phosphate buffer (pH 7.0) and 70 mM KCl.
The intriguing conformational change observed in HMPQ led to exceptional emission performance, prompting us to explore its application as a fluorescent probe. The inherent two-planar aromatic rings of HMPQ offer the potential for interaction with the guanine tetrad or conjugation with side chains of novel nucleic acid secondary structures, G4s^45,46. To evaluate the binding affinity of HMPQ, a series of photoluminescence tests was conducted using various G4 samples introduced with HMPQ (Table 5).
To delve deeper into the sensitivity of HMPQ as a fluorescent G4 probe, the PL spectra of HMPQ (0.15 mM) were obtained with varying concentrations of c-kit2, as illustrated in FIG. 5B. […] According to the equation for limit of detection (LOD), LOD=3 SB/m (SB=the standard deviation of the repeated 10 blank measurements, and m=the slope of the relative intensity over […]), it was calculated as 28.7 nM^49,50. […]

c-myc G4 = assay: CD spectroscopy of c-myc G4 with HMPQ; assay type: binding
Description: (§1) CD spectra of G4s with HMPQ were recorded on a Chirascan CD spectrometer at room temperature from 220 nm to 320 nm under liquid mode. A 1 mm-path-length quartz cuvette was used with a 400 μL sample. Each G4 sample was prepared at the same concentration of 15 μM. The compound was mixed with G4s at a molar ratio of 1:10. Each test was scanned three times, and the background of the buffer was subtracted.

c-kit2 G4 = assay: CD spectroscopy of c-kit2 G4 with HMPQ; assay type: binding
Description: as §1

[2] = system: immortalized mouse hippocampal neuronal cells HT22; assay: Cytotoxicity assay (thiazolyl blue tetrazolium bromide), HT22; assay type: cell-based; details: even at 100 μM, 24 h
Description: (§2) HEK293 and HeLa cells were purchased from ATCC, and HT22 cells were purchased from Sigma-Aldrich. They were cultured in Dulbecco's modified Eagle's medium (Thermo Fisher Scientific, 11965092) with 10% fetal bovine serum (Thermo Fisher Scientific, 26140079) and 1% penicillin-streptomycin at 37° C. in a humidified incubator with 5% CO2. After 1 day of cell culture, cells were seeded onto 96-well plates with a density of 5000 cells in each well and cultured for another 24 h. Then, HMPQ with different concentrations was added and treated for 24 h. After incubating with 20 μL of thiazolyl blue tetrazolium bromide (5 mg/mL in PBS buffer; Sigma-Aldrich) for 4 h, supernatants were removed, and 100 μL of DMSO was added to dissolve formazan. After shaking for 5 min in darkness, a Multiskan FC microplate was used to measure absorbance at 570 nm.

HeLa cells = assay: Cytotoxicity assay (thiazolyl blue tetrazolium bromide), HeLa; assay type: cell-based, human; details: even at 100 μM, 24 h
Description: as §2

G4s in HeLa cells = assay: Confocal cell imaging, co-localization with G4-specific antibody BG4; assay type: cell-based, human
Description: HeLa cells were seeded onto a 12-well plate with coverslips at 37° C. and 5% CO2 for 1 day and incubated with HMPQ at 10 μM overnight. The next day, cells were fixed with 4% paraformaldehyde for 15 min at room temperature and then permeabilized with 0.2% Triton X-100 in PBS for another 10 min. G4-specific antibodies BG4 (Sigma-Aldrich, cat. no. MABE 1126) were added at 1:500 dilution for staining and incubated overnight at 4° C. Cells were washed three times with PBS and then incubated with secondary antibodies (Alexa 647 anti-rabbit for G4) at 1:1000 dilution for 1 h at room temperature. After washing the cells with PBS three times to remove excess secondary, the cells were incubated with DAPI for 5 min and washed with PBS once. The cells on slides were then air dried, mounted onto a Hydromount medium, and observed using a Leica SP8 confocal microscope.

c-kit1 G4 = assay: CD spectroscopy of c-kit1 G4 with HMPQ; assay type: binding
Description: as §1

[3] = Absolute quantum yield of HMPQ in different states; assay type: physicochemical; details: for Quantum Yield (%): excitation 320 nm
Description: Streptomyces chrestomyceticus BCC24770 was acquired from the Thailand Bioresource Research Centre. All oligonucleotides used were bought from Integrated DNA Technologies company (Singapore). NMR spectra were recorded on a 500 M or 800 M Varian spectrometer at 25° C. HRMS data were recorded on a Xevo G2-XS QTOF mass spectrometer from Water's. HPLC analysis or preparation was performed using a Waters HPLC system (Waters 2695 Separations Module; Milford, USA) and monitored under a Waters 2998 Photodiode Array Detector. Semi-preparative HPLC was performed using a Phenomenex Luna C18 column (250 mm×10 mm in size) and designed for a particle size of 5 μm. Single-crystal XRD data were collected on a Rigaku-Oxford Diffraction Supernova Dual Atlas diffractometer. Crystal photos were taken under Nikon ECLIPSE Ts2R fluorescence microscopes. CD spectra were collected using Chirascan Circular Dichroism (CD) Spectrometers. UV-vis absorption spectra were obtained under a Shimadzu UV-2600 spectrophotometer (medium scanning rate and quartz cuvettes of 2 cm path length). Photoluminescence spectra were recorded on an Edinburgh FS5 Spectrofluorometer. Absolute quantum yield was collected using an integrating sphere on a Hamamatsu Quantum Yield Spectrometer C11347 Quantaurus. All digital photographs were recorded on a Canon EOS 7D camera. A Leica SP8 confocal microscope was used for cell imaging.
After observing the strong emission of crystalline-state HMPQ, we studied its photophysical properties in a polymer matrix. HMPQ was dissolved and blended with the common polymer poly(methyl methacrylate) (PMMA)^39. A series of films was prepared by coating mixtures with varying weight percentages (wt %) of HMPQ onto a quartz substrate. The resulting films, containing different wt % of HMPQ, were analysed to measure their photoluminescence (PL) and quantum yield (QY) (FIGS. 3A-3D and 14, Table 2).

HEK293 cells = assay: Cytotoxicity assay (thiazolyl blue tetrazolium bromide), HEK293; assay type: cell-based, human; details: even at 100 μM, 24 h
Description: as §2

[4] = system: regular double-stranded or single-stranded, or hairpin-structure nucleotides; assay: Photoluminescence and NMR titration with non-G4 oligonucleotides; assay type: binding
Excerpt: Conventional fluorescent probes rely on hydrophobic aromatic rings and π-conjugated chromophores^22. However, their tendency to aggregate in hydrophobic pockets upon binding to nucleic acid strands in aqueous environments often results in the quenching of emitted light. Conversely, AIEgens excel in aqueous media, evading aggregation-caused quenching. […] In embodiments, binding to G4s restricts the mobility of HMPQ molecules, leading to a significant enhancement in fluorescence intensity. CD spectra confirm that HMPQ maintains the original conformation of G4s and its high biocompatibility enables visualization of G4s within the cellular nucleus.
To verify whether the compounds interacted with G4 DNA, we performed NMR titration experiments by running 1D ^1H NMR spectra at 25° C. All compounds were dissolved in isotope-labelled d6-DMSO (from Sigma-Aldrich) at about 50 mM concentration as stock solutions. To avoid chemical shifts of G4 samples resulting from d6-DMSO addition, 10 μL of d6-DMSO was added into 500 μL of 0.1 mM G4 solution in the NMR buffer (20 mM potassium phosphate buffer and 70 mM KCl, pH 7.0, 10% D2O). Then, a 1D ^1H-NMR spectrum was obtained as a reference. […]
In addition to fluorescence spectroscopy tests, we performed NMR titration as another prevalent method for assessing binding affinity. […]

QY ([3]; 30 wt % film (HMPQ in PMMA)): 30.5% | Quantum Yield (%) ([3]; Film, 1 wt. % HMPQ in PMMA): 25.5% | Quantum Yield (%) ([3]; Film, 5 wt. % HMPQ in PMMA): 27.9% | Quantum Yield (%) ([3]; Film, 10 wt. % HMPQ in PMMA): 29.4% | Quantum Yield (%) ([3]; Film, 20 wt. % HMPQ in PMMA): 30.5% | Quantum Yield (%) ([3]; Film, 40 wt. % HMPQ in PMMA): 30.0% | Quantum Yield (%) ([3]; Film, 60 wt. % HMPQ in PMMA): 27.1% | Quantum Yield (%) ([3]; Film, 100 wt. % HMPQ): 23.0% | Quantum Yield (%) ([3]; In DMSO Solution, 10^−5 M): 6.7% | Quantum Yield (%) ([3]; In THF Solution, 10^−5 M): 2.4% | Quantum Yield (%) ([3]; Solid Powder): 3.9%
SMILES: CCC(=O)c1ccc(OC)c(-c2nc3ccccc3c(=O)[nH]2)c1O [HMPQ, 2-(2-hydroxy-6-methoxy-3-propionylphenyl)quinazolin-4(3H)-one]
fluorescence enhancement at 497 nm upon interaction with c-kit2 ([1]; 20 mM KH2PO4 buffer, 70 mM KCl, pH 7.0): around 300 fold | Stern-Volmer constant m ([1]; HMPQ 0.15 mM, c-kit2 0 μM to 50 μM): 1.94e+06 M⁻¹ | effect on original G4 conformation (CD spectrum) (c-myc G4): non-disruptive | effect on original G4 conformation (CD spectrum) (c-kit2 G4): non-disruptive | cytotoxicity [2]: no cytotoxicity | cytotoxicity (HeLa cells): no cytotoxicity | penetration of the cell nucleus (G4s in HeLa cells; BG4 as control): efficiently penetrated the cell nucleus | Overlap coefficient (G4s in HeLa cells; FIG. 6C legend): 0.943 | overlap coefficient with BG4 (G4s in HeLa cells; HMPQ 10 μM overnight): 94.3% | effect on original G4 conformation (CD spectrum) (c-kit1 G4): non-disruptive | cytotoxicity (HEK293 cells): no cytotoxicity | interaction with non-G4 nucleotides [4]: no interaction
